Experimental data taken from patent publication US4173539A, “Cationic surfactant compositions” (Lever Brothers Company, priority 1977, dated 1979).
Where “and” joins values, the source holds several entries; their conditions need not be identical. Identical values can stand only once.

What was measured:
[1] = Krafft point (Kp) determination; type: physicochemical; conditions: aqueous dispersion containing 2% by weight, temperature at which it becomes cloudy on cooling
Experimental: A composition of uniform turbidity can be recognised simply by visual observation of a sample which has been placed in a test tube and allowed to stand for 24 hours at ambient temperature. […] The melting point of particles of softening agent can be determined by placing in a hot stage microscope a sample of composition on a glass slide covered by a glass cover slip and observing the temperature at which melting of the particle occurs as a change in shape of the particles indicating deformation of liquid droplets when the cover slip is moved over the slide. The Krafft point (Kp) of the quaternary ammonium chloride can be determined by heating an aqueous dispersion containing 2% by weight of it to a temperature at which a transparent solution is obtained, cooling it, and observing the temperature at which it becomes cloudy. The clear point of the composition can be determined by heating a sample to 95° C.: lack of optical clarity at this temperature is taken as showing that the clear point is above 95° C.

[2] = Effective normality ratio range of quaternary ammonium salt to anionic surfactant for stable dispersions; type: physicochemical
Text: The ranges of figures in the table are the ranges of normality ratios expressed as quaternary ammonium salt to 1 of anionic surfactant.
There is no specific disclosure of the preparation of aqueous liquid concentrates in these prior publications of stable dispersions containing positively charged particles of quaternary ammonium softeners with single long-chain groups, and to prepare these it is necessary both to select a normality ratio within the operative range for the particular quaternary ammonium salt and anionic surfactant concerned and to employ a method of formulation which gives a homogeneous liquid phase before generating the complex-containing softener particles.

| Structure (SMILES) | Krafft point (Kp) [1] | Krafft point (Kp) ([1]; listed as behenoyl-hydroxypropyltrimethylammonium chloride of Preparation I) | effective normality ratio range, quaternary ammonium salt to 1 of anionic surfactant ([2]; anionic surfactant: Sodium stearate) | effective normality ratio range, quaternary ammonium salt to 1 of anionic surfactant ([2]; anionic surfactant: Sodium C15-C18 olefin sulphonate) | effective normality ratio range, quaternary ammonium salt to 1 of anionic surfactant ([2]; anionic surfactant: Sodium linear C10-C15 alkylbenzene sulphonate) | effective normality ratio range, quaternary ammonium salt to 1 of anionic surfactant ([2]; anionic surfactant: Sodium random secondary C13-C17 alkane sulphonate) | effective normality ratio range, quaternary ammonium salt to 1 of anionic surfactant ([2]; anionic surfactant: Sodium soap of tallow fatty acids) |
| --- | --- | --- | --- | --- | --- | --- | --- |
| CCCCCCCCCCCCCCCCCCCCCC(=O)OCC(O)C[N+](C)(C)C.[Cl-] (stereo not shown) [3-behenoyloxy-2-hydroxypropyl trimethylammonium chloride] | 54 °C and 58 °C | 58 °C | 1.2-3.0 |  |  |  |  |
| CCCCCCCCCCCCCCCCCCCCCC(=O)NCCC[N+](C)(C)C.[Cl-] [behenoylaminopropyl trimethylammonium chloride] | 60 °C |  |  |  |  |  |  |
| CCCCCCCCCCCCCCCC[N+](C)(C)Cc1ccccc1.[Cl-] [cetylbenzyldimethylammonium chloride] | 16 °C |  |  |  |  |  |  |
| CCCCCCCCCCCCCCCCCC[N+](C)(C)C.[Cl-] [stearyltrimethylammonium chloride] | 11 °C |  |  | 1.4-1.8 | 1.5-3.0 | 1.3-2.0 | 1.1-1.6 |
